The results in this text go back to US20210238192A1, “VASCULAR ADHESION PROTEIN-1 (VAP-1) MODULATORS AND THERAPEUTIC USES THEREOF” (Blade Therapeutics, Inc., priority 2018, published 2021).

pIC50: −log10 of the molar value. Structures can show the parent of a compound that is named as a salt. A value given as a limit tells only on which side of the number the result lay.

The target in the first experiment is T1, Human DAO (Homo sapiens, UniProt P19801).
T1 sequence (P19801 20-751): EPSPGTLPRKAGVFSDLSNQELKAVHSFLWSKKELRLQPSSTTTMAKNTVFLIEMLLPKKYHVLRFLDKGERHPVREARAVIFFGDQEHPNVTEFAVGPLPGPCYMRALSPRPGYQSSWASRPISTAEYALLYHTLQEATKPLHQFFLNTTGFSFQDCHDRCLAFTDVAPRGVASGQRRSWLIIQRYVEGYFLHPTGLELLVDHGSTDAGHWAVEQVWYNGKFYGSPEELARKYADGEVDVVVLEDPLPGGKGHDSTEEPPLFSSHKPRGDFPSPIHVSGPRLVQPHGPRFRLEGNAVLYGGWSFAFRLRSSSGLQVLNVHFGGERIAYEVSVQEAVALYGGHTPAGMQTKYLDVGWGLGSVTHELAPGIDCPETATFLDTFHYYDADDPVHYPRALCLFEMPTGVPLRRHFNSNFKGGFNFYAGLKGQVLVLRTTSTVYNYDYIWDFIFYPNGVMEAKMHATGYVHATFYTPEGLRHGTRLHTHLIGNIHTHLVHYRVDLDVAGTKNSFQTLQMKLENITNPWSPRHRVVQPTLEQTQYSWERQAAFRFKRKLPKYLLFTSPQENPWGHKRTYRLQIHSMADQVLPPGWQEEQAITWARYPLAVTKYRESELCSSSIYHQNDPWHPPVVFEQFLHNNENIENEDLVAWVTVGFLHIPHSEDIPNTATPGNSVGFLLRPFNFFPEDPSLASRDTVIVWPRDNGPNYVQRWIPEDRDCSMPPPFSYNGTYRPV
Nature of the experiment: DAO inhibition (Amplex Red continuous fluorescence assay). Type of experiment: biochemical.
Conditions: not given
As to the method:
(§1) VAP-1, DAO, MAO-A, MAO-B, and HRP activity and inhibition thereof was assessed by means of a continuous fluorescence assay. The Amplex Red Hydrogen Peroxide/Peroxidase Assay (ThermoFisher) was optimized for detecting amine oxidase (AO) activity. In an enzyme-coupled reaction, the H2O2 generated by AO reacts 1:1 with Amplex Red reagent to produce fluorescent product resorufin.
(§2) Assays were typically setup in black 384-well plates using automated liquid handling as follows. VAP-1/MAO assay buffer contains […] sodium phosphate, pH 7.4; DAO assay buffer contains 50 mM HEPES, pH 7.5; HRP assay buffer contains 100 mM CHES, 1 mM MgCl2, 50 mM NaCl, 0.05% BSA, pH 9.0. Inhibitors were serially diluted in DMSO and used to setup 2× mixtures with AO in the aforementioned buffer. After 30 min pre-incubation at 37° C. (VAP-1, HRP) or room temp (DAO, MAO), the reaction was initiated by adding a 2× mix of Amplex Red, HRP (coupling enzyme), and substrate (benzylamine, histamine, tyramine, benzylamine, H2O2, for VAP-1, DAO, MAO-A, MAO-B, and HR, respectively) in the same buffer. Reaction progress curve data were typically collected for 5 min using excitation/emission wavelengths of 510 nm/565 nm on FLIPR-Tetra plate readers (Molecular Devices Inc). Reaction rates were calculated from progress curve slopes typically over 60-150 sec. Dose response curves (rate vs. log inhibitor concentration) were typically fit to a 4-parameter logistic function to extract IC50 values.
One may read the pIC50 as the IC50 on a negative log10 scale, so that one unit is a factor of ten. Molecule `NC/C(=C\F)CNC(=O)Oc1ccccc1` [Compound 47, phenyl (E)-(2-(aminomethyl)-3-fluoroalkyl)carbamate hydrochloride] gave a pIC50 of under 5.00.

Still in this experiment, the particulars now being: 30 min pre-incubation at room temp; substrate histamine; read-out: Human DAO IC50.
As to `NC/C(=C/F)Cn1ncc(-c2ccc(O)cc2)n1` [Compound 58, (Z)-4-(2-(2-(aminomethyl)-3-fluoroalkyl)-2H-1,2,3-triazol-4-yl)phenol hydrochloride], the pIC50 is over 5.52.

Consider `NC/C(=C/F)COc1ccc(-c2ncco2)cc1` [Compound 53, (Z)-3-fluoro-2-((4-(oxazol-2-yl)phenoxy)methyl)prop-2-en-1-amine hydrochloride], for which the negative logarithm of the IC50 (pIC50) was over 5.52.

On to `NC/C(=C\F)COc1ccc(-c2nnn[nH]2)cc1` [Compound 51, (E)-2-((4-(1H-tetrazol-5-yl)phenoxy)methyl)-3-fluoroprop-2-en-1-amine hydrochloride], for which the negative-log IC50 (pIC50) was 5.00 to 5.52.

Take `NC/C(=C\F)COCc1cccs1` [Compound 41, (E)-3-fluoro-2-((thiophen-2-ylmethoxy)methyl)prop-2-en-1-amine]: the pIC50 was under 5.00.

As for `NC/C(=C/F)COCc1ccccc1` [Compound 6, (Z)-2-((benzyloxy)methyl)-3-fluoroprop-2-en-1-amine hydrochloride], the pIC50 was 5.00 to 5.52.

`NC/C(=C\F)COc1cccc2scnc12` [Compound 8, (E)-2-((benzo[d]thiazol-4-yloxy)methyl)-3-fluoroprop-2-en-1-amine hydrochloride]: the pIC50 was over 5.52.

The target of a further experiment is T2, Human VAP-1 (Homo sapiens, UniProt Q16853).
T2 sequence (Q16853 1-763): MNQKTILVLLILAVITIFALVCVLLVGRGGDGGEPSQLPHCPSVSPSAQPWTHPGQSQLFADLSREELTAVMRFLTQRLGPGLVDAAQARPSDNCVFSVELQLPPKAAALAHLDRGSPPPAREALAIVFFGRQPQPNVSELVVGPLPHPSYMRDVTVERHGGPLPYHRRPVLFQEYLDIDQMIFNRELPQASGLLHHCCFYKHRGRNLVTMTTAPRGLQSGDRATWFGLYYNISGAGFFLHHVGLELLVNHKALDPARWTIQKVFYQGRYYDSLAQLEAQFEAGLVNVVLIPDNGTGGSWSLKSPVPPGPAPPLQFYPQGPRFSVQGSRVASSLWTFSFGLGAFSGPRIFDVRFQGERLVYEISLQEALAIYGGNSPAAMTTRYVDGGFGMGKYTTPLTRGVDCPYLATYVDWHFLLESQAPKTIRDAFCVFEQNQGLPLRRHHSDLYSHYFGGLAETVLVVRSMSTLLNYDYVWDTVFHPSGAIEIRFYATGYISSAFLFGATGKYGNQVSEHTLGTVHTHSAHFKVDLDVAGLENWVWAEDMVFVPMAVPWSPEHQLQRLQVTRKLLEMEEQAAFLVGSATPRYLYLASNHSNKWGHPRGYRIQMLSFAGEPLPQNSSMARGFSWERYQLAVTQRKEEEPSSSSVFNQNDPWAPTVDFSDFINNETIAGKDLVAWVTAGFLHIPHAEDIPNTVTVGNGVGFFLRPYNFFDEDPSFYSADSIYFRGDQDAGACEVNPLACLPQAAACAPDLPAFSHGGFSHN
Nature of the experiment: VAP-1 inhibition assay (Amplex Red continuous fluorescence assay). Type of experiment: biochemical.
Conditions: not given
As to the method:
as §1, §2
Turning to `NC/C(=C\F)CNC(=O)Oc1ccccc1` [Compound 47, phenyl (E)-(2-(aminomethyl)-3-fluoroalkyl)carbamate hydrochloride], the pIC50 is over 5.52.

The same experiment, now with this note: 30 min pre-incubation at 37° C.; substrate benzylamine; read-out: Human VAP-1 IC50.
Turning to `NC/C(=C/F)Cn1ncc(-c2ccc(O)cc2)n1` [Compound 58, (Z)-4-(2-(2-(aminomethyl)-3-fluoroalkyl)-2H-1,2,3-triazol-4-yl)phenol hydrochloride], the pIC50 is over 5.52.

In the case of `NC/C(=C/F)COc1ccc(-c2ncco2)cc1` [Compound 53, (Z)-3-fluoro-2-((4-(oxazol-2-yl)phenoxy)methyl)prop-2-en-1-amine hydrochloride], the pIC50 is over 5.52.

Take `NC/C(=C\F)COc1ccc(-c2nnn[nH]2)cc1` [Compound 51, (E)-2-((4-(1H-tetrazol-5-yl)phenoxy)methyl)-3-fluoroprop-2-en-1-amine hydrochloride]: the negative-log IC50 (pIC50) was over 5.52.

Regarding `NC/C(=C\F)COCc1cccs1` [Compound 41, (E)-3-fluoro-2-((thiophen-2-ylmethoxy)methyl)prop-2-en-1-amine], the negative logarithm of the IC50 (pIC50) is over 5.52.

With `NC/C(=C/F)COCc1ccccc1` [Compound 6, (Z)-2-((benzyloxy)methyl)-3-fluoroprop-2-en-1-amine hydrochloride], the negative-log IC50 (pIC50) is over 5.52.

Consider `NC/C(=C\F)COc1cccc2scnc12` [Compound 8, (E)-2-((benzo[d]thiazol-4-yloxy)methyl)-3-fluoroprop-2-en-1-amine hydrochloride], for which the pIC50 was over 5.52.

The next experiment concerns the target T3, Human MAO-A (Homo sapiens, UniProt P21397).
T3 sequence (P21397 1-527): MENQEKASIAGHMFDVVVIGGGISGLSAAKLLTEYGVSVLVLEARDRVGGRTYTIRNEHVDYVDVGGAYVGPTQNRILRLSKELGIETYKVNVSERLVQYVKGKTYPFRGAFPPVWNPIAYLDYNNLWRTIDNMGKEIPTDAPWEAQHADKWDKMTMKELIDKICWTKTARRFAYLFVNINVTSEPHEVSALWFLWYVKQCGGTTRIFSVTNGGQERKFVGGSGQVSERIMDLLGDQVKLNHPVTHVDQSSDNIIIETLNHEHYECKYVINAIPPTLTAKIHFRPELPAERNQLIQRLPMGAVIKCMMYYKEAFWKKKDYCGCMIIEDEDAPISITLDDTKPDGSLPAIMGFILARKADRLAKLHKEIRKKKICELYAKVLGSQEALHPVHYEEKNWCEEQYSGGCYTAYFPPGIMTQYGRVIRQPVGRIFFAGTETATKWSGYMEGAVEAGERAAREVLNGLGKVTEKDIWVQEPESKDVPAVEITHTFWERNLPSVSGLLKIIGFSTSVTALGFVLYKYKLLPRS
Kind of experiment: MAO-A inhibition (Amplex Red continuous fluorescence assay). The class given is biochemical.
Conditions: not given
As to the method: as §1, §2
`NC/C(=C\F)CNC(=O)Oc1ccccc1` [Compound 47, phenyl (E)-(2-(aminomethyl)-3-fluoroalkyl)carbamate hydrochloride]: the negative-log IC50 (pIC50) is over 5.52.

The same experiment, now with this note: 30 min pre-incubation at room temp; substrate tyramine; read-out: Human MAO-A IC50.
`NC/C(=C/F)Cn1ncc(-c2ccc(O)cc2)n1` [Compound 58, (Z)-4-(2-(2-(aminomethyl)-3-fluoroalkyl)-2H-1,2,3-triazol-4-yl)phenol hydrochloride]: the negative-log IC50 (pIC50) is over 5.52.

Turning to `NC/C(=C/F)COc1ccc(-c2ncco2)cc1` [Compound 53, (Z)-3-fluoro-2-((4-(oxazol-2-yl)phenoxy)methyl)prop-2-en-1-amine hydrochloride], the negative logarithm of the IC50 (pIC50) is 5.00 to 5.52.

Turning to `NC/C(=C\F)COc1ccc(-c2nnn[nH]2)cc1` [Compound 51, (E)-2-((4-(1H-tetrazol-5-yl)phenoxy)methyl)-3-fluoroprop-2-en-1-amine hydrochloride], the pIC50 was under 5.00.

With `NC/C(=C\F)COCc1cccs1` [Compound 41, (E)-3-fluoro-2-((thiophen-2-ylmethoxy)methyl)prop-2-en-1-amine], the negative logarithm of the IC50 (pIC50) is over 5.52.

On to `NC/C(=C/F)COCc1ccccc1` [Compound 6, (Z)-2-((benzyloxy)methyl)-3-fluoroprop-2-en-1-amine hydrochloride], for which the negative-log IC50 (pIC50) is over 5.52.

In the case of `NC/C(=C\F)COc1cccc2scnc12` [Compound 8, (E)-2-((benzo[d]thiazol-4-yloxy)methyl)-3-fluoroprop-2-en-1-amine hydrochloride], the negative-log IC50 (pIC50) was over 5.52.

The target of the next experiment is T4, Human MAO-B (Homo sapiens, UniProt P27338).
T4 sequence (P27338 1-520): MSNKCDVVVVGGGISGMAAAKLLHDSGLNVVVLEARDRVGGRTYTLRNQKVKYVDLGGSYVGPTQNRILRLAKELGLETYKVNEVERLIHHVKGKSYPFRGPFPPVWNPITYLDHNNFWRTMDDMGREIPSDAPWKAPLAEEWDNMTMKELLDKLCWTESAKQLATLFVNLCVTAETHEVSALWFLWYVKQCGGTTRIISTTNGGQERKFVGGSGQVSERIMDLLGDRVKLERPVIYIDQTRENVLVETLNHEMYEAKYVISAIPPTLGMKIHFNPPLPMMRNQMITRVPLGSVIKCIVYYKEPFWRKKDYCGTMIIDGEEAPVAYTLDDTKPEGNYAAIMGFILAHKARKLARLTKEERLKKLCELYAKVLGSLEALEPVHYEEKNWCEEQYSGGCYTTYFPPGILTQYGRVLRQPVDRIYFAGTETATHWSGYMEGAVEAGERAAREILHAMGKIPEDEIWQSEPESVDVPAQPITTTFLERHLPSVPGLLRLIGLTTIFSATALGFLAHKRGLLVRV
Nature of the experiment: MAO-B inhibition (Amplex Red continuous fluorescence assay). The class given is biochemical.
Conditions: not given
As to the method: as §1, §2
`NC/C(=C\F)CNC(=O)Oc1ccccc1` [Compound 47, phenyl (E)-(2-(aminomethyl)-3-fluoroalkyl)carbamate hydrochloride] gave a pIC50 of under 5.00.

The experiment is the same for the next values; noted with them: 30 min pre-incubation at room temp; substrate benzylamine; read-out: Human MAO-B IC50.
Turning to `NC/C(=C/F)Cn1ncc(-c2ccc(O)cc2)n1` [Compound 58, (Z)-4-(2-(2-(aminomethyl)-3-fluoroalkyl)-2H-1,2,3-triazol-4-yl)phenol hydrochloride], the pIC50 was over 5.52.

Take `NC/C(=C/F)COc1ccc(-c2ncco2)cc1` [Compound 53, (Z)-3-fluoro-2-((4-(oxazol-2-yl)phenoxy)methyl)prop-2-en-1-amine hydrochloride]: the negative-log IC50 (pIC50) is over 5.52.

In the case of `NC/C(=C\F)COc1ccc(-c2nnn[nH]2)cc1` [Compound 51, (E)-2-((4-(1H-tetrazol-5-yl)phenoxy)methyl)-3-fluoroprop-2-en-1-amine hydrochloride], the pIC50 is under 5.00.

For `NC/C(=C\F)COCc1cccs1` [Compound 41, (E)-3-fluoro-2-((thiophen-2-ylmethoxy)methyl)prop-2-en-1-amine], the negative-log IC50 (pIC50) is over 5.52.

`NC/C(=C/F)COCc1ccccc1` [Compound 6, (Z)-2-((benzyloxy)methyl)-3-fluoroprop-2-en-1-amine hydrochloride]: the negative-log IC50 (pIC50) was over 5.52.

For `NC/C(=C\F)COc1cccc2scnc12` [Compound 8, (E)-2-((benzo[d]thiazol-4-yloxy)methyl)-3-fluoroprop-2-en-1-amine hydrochloride], the pIC50 was over 5.52.
